Data as given in PubChem BioAssay AID2060603 (Molecular Pharmacology Branch, DTP, NCI, 2025).
One block for each compound: values may come before it.

System: 422866-222-R5-J1-PDC spheroid viability
Test: Anticancer human tumor 422866-222-R5-J1-PDC patient-derived pancreatic adenocarcinoma cell line growth inhibition [CLK]
Details: spheroids with HUVEC and MSC; for IC50: curve of first compound; for viability, T/C: stronger effect = lower value
Procedure, shortened: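 Multi-cell-type spheroids combined patient-derived tumor cells with HUVEC endothelial cells and human mesenchymal stem cells. Paired agents were dosed in half-log steps down from about clinical Cmax, or from 10 microM where Cmax was unknown.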

[1] = second compound 0.0316 µM, first compound 0.0316 µM
[2] = second compound 0.0316 µM, first compound 0.1 µM
[3] = second compound 0.0316 µM, first compound 0.316 µM
[4] = second compound 0.0316 µM, first compound 1 µM
[5] = second compound 0.0316 µM, first compound 3.16 µM
[6] = second compound 0.0316 µM, first compound 10 µM
[7] = second compound 0.1 µM, first compound 0.0316 µM
[8] = second compound 0.1 µM, first compound 0.1 µM
[9] = second compound 0.1 µM, first compound 0.316 µM
[10] = second compound 0.1 µM, first compound 1 µM
[11] = second compound 0.1 µM, first compound 3.16 µM
[12] = second compound 0.1 µM, first compound 10 µM
[13] = second compound 0.316 µM, first compound 0.0316 µM
[14] = second compound 0.316 µM, first compound 0.1 µM
[15] = second compound 0.316 µM, first compound 0.316 µM
[16] = second compound 0.316 µM, first compound 1 µM
[17] = second compound 0.316 µM, first compound 3.16 µM
[18] = second compound 0.316 µM, first compound 10 µM
[19] = second compound 1 µM, first compound 0.0316 µM
[20] = second compound 1 µM, first compound 0.1 µM
[21] = second compound 1 µM, first compound 0.316 µM
[22] = second compound 1 µM, first compound 1 µM
[23] = second compound 1 µM, first compound 3.16 µM
[24] = second compound 1 µM, first compound 10 µM
[25] = second compound 3.16 µM, first compound 0.0316 µM
[26] = second compound 3.16 µM, first compound 0.1 µM
[27] = second compound 3.16 µM, first compound 0.316 µM
[28] = second compound 3.16 µM, first compound 1 µM
[29] = second compound 3.16 µM, first compound 3.16 µM
[30] = second compound 3.16 µM, first compound 10 µM
[31] = second compound 10 µM, first compound 0.0316 µM
[32] = second compound 10 µM, first compound 0.1 µM
[33] = second compound 10 µM, first compound 0.316 µM
[34] = second compound 10 µM, first compound 1 µM
[35] = second compound 10 µM, first compound 3.16 µM
[36] = second compound 10 µM, first compound 10 µM
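Note: spheroids exposed to agents for seven days before readout.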

IC50 (second compound 0.0316 µM): > 10000 nM
IC50 (second compound 0.1 µM): > 10000 nM
IC50 (second compound 0.316 µM): > 10000 nM
IC50 (second compound 1 µM): 31.6 nM
IC50 (second compound 3.16 µM): > 10000 nM
IC50 (second compound 10 µM): > 10000 nM
SMILES: CC(=O)O[C@H]1C(=O)[C@@]2(C)[C@H]([C@H](OC(=O)c3ccccc3)[C@]3(O)C[C@H](OC(=O)[C@H](O)[C@@H](NC(=O)c4ccccc4)c4ccccc4)C(C)=C1C3(C)C)[C@]1(OC(C)=O)CO[C@@H]1C[C@@H]2O + CNC(=O)c1ccc(Nc2nc(OC3CCCC3)c3c(-c4ccc5nc(C)oc5c4)c[nH]c3n2)c(OC)c1
viability, T/C [1]: 68.8%
viability, T/C [2]: 61.1%
viability, T/C [3]: 65.3%
viability, T/C [4]: 83.3%
viability, T/C [5]: 102%
viability, T/C [6]: 100%
viability, T/C [7]: 61%
viability, T/C [8]: 67.9%
viability, T/C [9]: 63%
viability, T/C [10]: 74.8%
viability, T/C [11]: 78.5%
viability, T/C [12]: 98.1%
viability, T/C [13]: 59.4%
viability, T/C [14]: 68%
viability, T/C [15]: 62.2%
viability, T/C [16]: 61.4%
viability, T/C [17]: 65.5%
viability, T/C [18]: 78.7%
viability, T/C [19]: 56.5%
viability, T/C [20]: 48.4%
viability, T/C [21]: 52.8%
viability, T/C [22]: 48.5%
viability, T/C [23]: 66.5%
viability, T/C [24]: 73%
viability, T/C [25]: 56.5%
viability, T/C [26]: 60.8%
viability, T/C [27]: 52.3%
viability, T/C [28]: 57.9%
viability, T/C [29]: 70.5%
viability, T/C [30]: 79%
viability, T/C [31]: 48.9%
viability, T/C [32]: 60.1%
viability, T/C [33]: 61.4%
viability, T/C [34]: 53.9%
viability, T/C [35]: 65.4%
viability, T/C [36]: 70.5%

IC50 (second compound 0.0316 µM): 2890 nM
IC50 (second compound 0.1 µM): 2710 nM
IC50 (second compound 0.316 µM): 775 nM
IC50 (second compound 1 µM): 617 nM
IC50 (second compound 3.16 µM): 548 nM
IC50 (second compound 10 µM): 1300 nM
SMILES: COc1ccc([C@@H](O)c2cc(-c3ncnc4cc(N5CCOCC5)ccc34)c(F)cc2Cl)nn1 + CNC(=O)c1ccc(Nc2nc(OC3CCCC3)c3c(-c4ccc5nc(C)oc5c4)c[nH]c3n2)c(OC)c1
viability, T/C [1]: 113%
viability, T/C [2]: 91.6%
viability, T/C [3]: 77.5%
viability, T/C [4]: 70.2%
viability, T/C [5]: 45.1%
viability, T/C [6]: 35.2%
viability, T/C [7]: 106%
viability, T/C [8]: 81.9%
viability, T/C [9]: 84.1%
viability, T/C [10]: 62.5%
viability, T/C [11]: 45.4%
viability, T/C [12]: 34.5%
viability, T/C [13]: 69.7%
viability, T/C [14]: 63.1%
viability, T/C [15]: 73.1%
viability, T/C [16]: 44.7%
viability, T/C [17]: 44.4%
viability, T/C [18]: 32.9%
viability, T/C [19]: 63.3%
viability, T/C [20]: 58%
viability, T/C [21]: 57%
viability, T/C [22]: 45.4%
viability, T/C [23]: 38.3%
viability, T/C [24]: 37.9%
viability, T/C [25]: 54.5%
viability, T/C [26]: 66.2%
viability, T/C [27]: 43.5%
viability, T/C [28]: 47.8%
viability, T/C [29]: 45.9%
viability, T/C [30]: 37.7%
viability, T/C [31]: 48.5%
viability, T/C [32]: 63.6%
viability, T/C [33]: 56.8%
viability, T/C [34]: 44.1%
viability, T/C [35]: 48.9%
viability, T/C [36]: 36.6%

IC50 (second compound 0.0316 µM): 160 nM
IC50 (second compound 0.1 µM): 106 nM
IC50 (second compound 0.316 µM): 85.5 nM
IC50 (second compound 1 µM): 79.1 nM
IC50 (second compound 3.16 µM): 109 nM
IC50 (second compound 10 µM): < 31.6 nM
SMILES: COc1cccc2c1C(=O)c1c(O)c3c(c(O)c1C2=O)CC(O)(C(=O)CO)CC3OC1CC(N)C(O)C(C)O1 (stereo unspecified) + CNC(=O)c1ccc(Nc2nc(OC3CCCC3)c3c(-c4ccc5nc(C)oc5c4)c[nH]c3n2)c(OC)c1
viability, T/C [1]: 65%
viability, T/C [2]: 60.4%
viability, T/C [3]: 34.8%
viability, T/C [4]: 28.6%
viability, T/C [5]: 30.4%
viability, T/C [6]: 27.8%
viability, T/C [7]: 66.2%
viability, T/C [8]: 50.3%
viability, T/C [9]: 37.8%
viability, T/C [10]: 28.2%
viability, T/C [11]: 30.9%
viability, T/C [12]: 28.6%
viability, T/C [13]: 67.6%
viability, T/C [14]: 47.1%
viability, T/C [15]: 38.7%
viability, T/C [16]: 36.6%
viability, T/C [17]: 35.2%
viability, T/C [18]: 33.4%
viability, T/C [19]: 60.1%
viability, T/C [20]: 47.5%
viability, T/C [21]: 31.1%
viability, T/C [22]: 32.2%
viability, T/C [23]: 31.2%
viability, T/C [24]: 30.5%
viability, T/C [25]: 48.6%
viability, T/C [26]: 53.3%
viability, T/C [27]: 39%
viability, T/C [28]: 30.1%
viability, T/C [29]: 34.3%
viability, T/C [30]: 35.9%
viability, T/C [31]: 48.9%
viability, T/C [32]: 41.1%
viability, T/C [33]: 35.2%
viability, T/C [34]: 31.1%
viability, T/C [35]: 32%
viability, T/C [36]: 48.9%
